Experimental data from patent US20230278972A1, “SUBSTITUTED HALOALKYL SULFONANILIDE HERBICIDES” (FMC Corporation, priority 2020, published 2023).

What was measured:
Type in all cases: in vivo
[1] = test system: galium (catchweed bedstraw, Galium aparine); assay: Test A postemergence, galium; settings: Postemergence, 0 to 100 scale (0 no effect, 100 complete control); for Plant response rating, Galium: 125 g ai/ha, visual injury approx. 10 days; for Galium plant response rating: 500 g ai/ha, visual injury vs untreated controls after approx. 10 days
How it was run: (§1)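 Barnyardgrass, wheat and galium were treated postemergence at the one- to two-leaf stage (2 to 10 cm) with chemicals formulated in non-phytotoxic solvent plus surfactant, grown in loam soil–sand pots. Pigweed was sown in the same blend and given a preemergence directed soil spray.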

[2] = test system: pigweed (Amaranthus retroflexus); assay: Test A preemergence, pigweed; settings: for Pigweed plant response rating: 125 g ai/ha, visual injury on 0 to 100 scale (0 no effect, 100 complete control), approximately 10 days; for Plant response rating, Pigweed: 500 g ai/ha, 0 to 100 scale (0 no effect, 100 complete control)
How it was run: as §1

[3] = test system: kochia (Bassia scoparia); assay: Test A postemergence, kochia; settings: Postemergence, 0 to 100 scale (0 no effect, 100 complete control); for Plant response rating, Kochia: 125 g ai/ha, visual injury approx. 10 days; for Kochia plant response rating: 500 g ai/ha, visual injury vs untreated controls after approx. 10 days
How it was run: (§2)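 After sowing into a sand-amended loam, pots for the preemergence test were treated by spraying directly onto soil. In parallel, seedlings at the one- to two-leaf stage and 2 to 10 cm tall were treated postemergence with the identical surfactant-containing formulation.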

[4] = test system: Foxtail, Giant (giant foxtail, Setaria faberi); assay: Test A postemergence, Foxtail, Giant; settings: Postemergence, 0 to 100 scale (0 no effect, 100 complete control); for Plant response rating, Foxtail, Giant: 125 g ai/ha, visual injury approx. 10 days; for Foxtail, Giant plant response rating: 500 g ai/ha, visual injury vs untreated controls after approx. 10 days
How it was run: as §2

[5] = test system: kochia (Bassia scoparia); assay: Test A preemergence, kochia; settings: Preemergence; for Kochia plant response rating: 125 g ai/ha, visual injury on 0 to 100 scale (0 no effect, 100 complete control), approximately 10 days; for Plant response rating, Kochia: 500 g ai/ha, 0 to 100 scale (0 no effect, 100 complete control)
How it was run: as §2

[6] = test system: barnyardgrass (Echinochloa crus-galli); assay: Test A preemergence, barnyardgrass; settings: Preemergence; for Barnyardgrass plant response rating: 125 g ai/ha, visual injury on 0 to 100 scale (0 no effect, 100 complete control), approximately 10 days; for Plant response rating, Barnyardgrass: 500 g ai/ha, 0 to 100 scale (0 no effect, 100 complete control)
How it was run: as §2

[7] = test system: corn (Zea mays); assay: Test A postemergence, corn; settings: Postemergence, 0 to 100 scale (0 no effect, 100 complete control); for Plant response rating, Corn: 125 g ai/ha, visual injury approx. 10 days; for Corn plant response rating: 500 g ai/ha, visual injury vs untreated controls after approx. 10 days
How it was run: as §2

[8] = test system: Foxtail, Giant (giant foxtail, Setaria faberi); assay: Test A preemergence, Foxtail, Giant; settings: Preemergence; for Foxtail, Giant plant response rating: 125 g ai/ha, visual injury on 0 to 100 scale (0 no effect, 100 complete control), approximately 10 days; for Plant response rating, Foxtail, Giant: 500 g ai/ha, 0 to 100 scale (0 no effect, 100 complete control)
How it was run: as §2

[9] = test system: ragweed (common ragweed, Ambrosia artemisiifolia); assay: Test A postemergence, ragweed; settings: Postemergence, 0 to 100 scale (0 no effect, 100 complete control); for Plant response rating, Ragweed: 125 g ai/ha, visual injury approx. 10 days; for Ragweed plant response rating: 500 g ai/ha, visual injury vs untreated controls after approx. 10 days
How it was run: as §2

[10] = test system: pigweed (Amaranthus retroflexus); assay: Test A postemergence, pigweed; settings: Postemergence, 0 to 100 scale (0 no effect, 100 complete control); for Plant response rating, Pigweed: 125 g ai/ha, visual injury approx. 10 days; for Pigweed plant response rating: 500 g ai/ha, visual injury vs untreated controls after approx. 10 days
How it was run: as §2

[11] = test system: ragweed (common ragweed, Ambrosia artemisiifolia); assay: Test A preemergence, ragweed; settings: Preemergence; for Ragweed plant response rating: 125 g ai/ha, visual injury on 0 to 100 scale (0 no effect, 100 complete control), approximately 10 days; for Plant response rating, Ragweed: 500 g ai/ha, 0 to 100 scale (0 no effect, 100 complete control)
How it was run: as §2

[12] = test system: Ryegrass, Italian (Italian ryegrass, Lolium multiflorum); assay: Test A postemergence, Ryegrass, Italian; settings: Postemergence, 0 to 100 scale (0 no effect, 100 complete control); for Plant response rating, Ryegrass, Italian: 125 g ai/ha, visual injury approx. 10 days; for Ryegrass, Italian plant response rating: 500 g ai/ha, visual injury vs untreated controls after approx. 10 days
How it was run: as §2

[13] = test system: Ryegrass, Italian (Italian ryegrass, Lolium multiflorum); assay: Test A preemergence, Ryegrass, Italian; settings: Preemergence; for Ryegrass, Italian plant response rating: 125 g ai/ha, visual injury on 0 to 100 scale (0 no effect, 100 complete control), approximately 10 days; for Plant response rating, Ryegrass, Italian: 500 g ai/ha, 0 to 100 scale (0 no effect, 100 complete control)
How it was run: as §2

[14] = test system: blackgrass (Alopecurus myosuroides); assay: Test A postemergence, blackgrass; settings: Postemergence, 0 to 100 scale (0 no effect, 100 complete control); for Plant response rating, Blackgrass: 125 g ai/ha, visual injury approx. 10 days; for Blackgrass plant response rating: 500 g ai/ha, visual injury vs untreated controls after approx. 10 days
How it was run: as §2

[15] = test system: barnyardgrass (Echinochloa crus-galli); assay: Test A postemergence, barnyardgrass; settings: Postemergence, 0 to 100 scale (0 no effect, 100 complete control); for Plant response rating, Barnyardgrass: 125 g ai/ha, visual injury approx. 10 days; for Barnyardgrass plant response rating: 500 g ai/ha, visual injury vs untreated controls after approx. 10 days
How it was run: as §1

[16] = test system: wheat (Triticum aestivum); assay: Test A postemergence, wheat; settings: Postemergence, 0 to 100 scale (0 no effect, 100 complete control); for Plant response rating, Wheat: 125 g ai/ha, visual injury approx. 10 days; for Wheat plant response rating: 500 g ai/ha, visual injury vs untreated controls after approx. 10 days
How it was run: as §1

COc1ccnn(-c2cc(NS(=O)(=O)C(F)(F)F)c(C)cc2C)c1=O [Compound 60]
Plant response rating, Galium [1]: 90 | Galium plant response rating [1]: 90 | Pigweed plant response rating [2]: 100 | Plant response rating, Pigweed [2]: 100 | Plant response rating, Kochia [3]: 40 | Kochia plant response rating [3]: 80 | Plant response rating, Foxtail, Giant [4]: 60 | Foxtail, Giant plant response rating [4]: 90 | Kochia plant response rating [5]: 90 | Plant response rating, Kochia [5]: 90 | Barnyardgrass plant response rating [6]: 90 | Plant response rating, Barnyardgrass [6]: 90 | Plant response rating, Corn [7]: 10 | Corn plant response rating [7]: 60 | Foxtail, Giant plant response rating [8]: 80 | Plant response rating, Foxtail, Giant [8]: 90 | Plant response rating, Ragweed [9]: 50 | Ragweed plant response rating [9]: 70 | Plant response rating, Pigweed [10]: 80 | Pigweed plant response rating [10]: 90 | Ragweed plant response rating [11]: 30 | Plant response rating, Ragweed [11]: 70 | Plant response rating, Ryegrass, Italian [12]: 70 | Ryegrass, Italian plant response rating [12]: 80 | Ryegrass, Italian plant response rating [13]: 80 | Plant response rating, Ryegrass, Italian [13]: 90 | Plant response rating, Blackgrass [14]: 40 | Blackgrass plant response rating [14]: 70 | Plant response rating, Barnyardgrass [15]: 70 | Barnyardgrass plant response rating [15]: 70 | Plant response rating, Wheat [16]: 50 | Wheat plant response rating [16]: 70

Cc1cc(C)c(N(S(=O)(=O)C(F)(F)F)S(=O)(=O)C(F)(F)F)cc1-c1cc(C(F)(F)F)nn(C)c1=O [Compound 61]
Plant response rating, Galium [1]: 50 | Galium plant response rating [1]: 60 | Pigweed plant response rating [2]: 50 | Plant response rating, Pigweed [2]: 80 | Plant response rating, Kochia [3]: 40 | Kochia plant response rating [3]: 60 | Plant response rating, Foxtail, Giant [4]: 0 | Foxtail, Giant plant response rating [4]: 70 | Kochia plant response rating [5]: 50 | Plant response rating, Kochia [5]: 90 | Barnyardgrass plant response rating [6]: 100 | Plant response rating, Barnyardgrass [6]: 100 | Plant response rating, Corn [7]: 20 | Corn plant response rating [7]: 10 | Foxtail, Giant plant response rating [8]: 100 | Plant response rating, Foxtail, Giant [8]: 100 | Plant response rating, Ragweed [9]: 0 | Ragweed plant response rating [9]: 30 | Plant response rating, Pigweed [10]: 20 | Pigweed plant response rating [10]: 80 | Ragweed plant response rating [11]: 0 | Plant response rating, Ragweed [11]: 0 | Plant response rating, Ryegrass, Italian [12]: 40 | Ryegrass, Italian plant response rating [12]: 80 | Ryegrass, Italian plant response rating [13]: 70 | Plant response rating, Ryegrass, Italian [13]: 100 | Plant response rating, Blackgrass [14]: 0 | Blackgrass plant response rating [14]: 30 | Plant response rating, Barnyardgrass [15]: 20 | Barnyardgrass plant response rating [15]: 80 | Plant response rating, Wheat [16]: 40 | Wheat plant response rating [16]: 70

Cc1cc(-c2cc(NS(=O)(=O)C(F)(F)F)c(C)cc2C)c(=O)n(C)n1 [Compound 62]
Plant response rating, Galium [1]: 70 | Galium plant response rating [1]: 80 | Pigweed plant response rating [2]: 50 | Plant response rating, Pigweed [2]: 90 | Plant response rating, Kochia [3]: 20 | Kochia plant response rating [3]: 40 | Plant response rating, Foxtail, Giant [4]: 0 | Foxtail, Giant plant response rating [4]: 80 | Kochia plant response rating [5]: 70 | Plant response rating, Kochia [5]: 90 | Barnyardgrass plant response rating [6]: 100 | Plant response rating, Barnyardgrass [6]: 100 | Plant response rating, Corn [7]: 0 | Corn plant response rating [7]: 0 | Foxtail, Giant plant response rating [8]: 100 | Plant response rating, Foxtail, Giant [8]: 100 | Plant response rating, Ragweed [9]: 0 | Ragweed plant response rating [9]: 20 | Plant response rating, Pigweed [10]: 20 | Pigweed plant response rating [10]: 40 | Ragweed plant response rating [11]: 20 | Plant response rating, Ragweed [11]: 80 | Plant response rating, Ryegrass, Italian [12]: 0 | Ryegrass, Italian plant response rating [12]: 20 | Ryegrass, Italian plant response rating [13]: 40 | Plant response rating, Ryegrass, Italian [13]: 100 | Plant response rating, Blackgrass [14]: 0 | Blackgrass plant response rating [14]: 50 | Plant response rating, Barnyardgrass [15]: 0 | Barnyardgrass plant response rating [15]: 70 | Plant response rating, Wheat [16]: 0 | Wheat plant response rating [16]: 60

Cc1cc(F)c(-c2ccnn(C)c2=O)cc1NS(=O)(=O)C(F)(F)F [Compound 63]
Plant response rating, Galium [1]: 90 | Galium plant response rating [1]: 90 | Pigweed plant response rating [2]: 70 | Plant response rating, Pigweed [2]: 90 | Plant response rating, Kochia [3]: 70 | Kochia plant response rating [3]: 90 | Plant response rating, Foxtail, Giant [4]: 70 | Foxtail, Giant plant response rating [4]: 90 | Kochia plant response rating [5]: 40 | Plant response rating, Kochia [5]: 90 | Barnyardgrass plant response rating [6]: 70 | Plant response rating, Barnyardgrass [6]: 90 | Plant response rating, Corn [7]: 0 | Corn plant response rating [7]: 50 | Foxtail, Giant plant response rating [8]: 90 | Plant response rating, Foxtail, Giant [8]: 100 | Plant response rating, Ragweed [9]: 10 | Ragweed plant response rating [9]: 60 | Plant response rating, Pigweed [10]: 30 | Pigweed plant response rating [10]: 80 | Ragweed plant response rating [11]: 30 | Plant response rating, Ragweed [11]: 80 | Plant response rating, Ryegrass, Italian [12]: 30 | Ryegrass, Italian plant response rating [12]: 70 | Ryegrass, Italian plant response rating [13]: 90 | Plant response rating, Ryegrass, Italian [13]: 100 | Plant response rating, Blackgrass [14]: 0 | Blackgrass plant response rating [14]: 40 | Plant response rating, Barnyardgrass [15]: 10 | Barnyardgrass plant response rating [15]: 90 | Plant response rating, Wheat [16]: 0 | Wheat plant response rating [16]: 80

COc1c(Cl)nn(C)c(=O)c1-c1cc(NS(=O)(=O)C(F)(F)F)c(C)cc1C [Compound 64]
Plant response rating, Galium [1]: 0 | Galium plant response rating [1]: 30 | Pigweed plant response rating [2]: 40 | Plant response rating, Pigweed [2]: 50 | Plant response rating, Kochia [3]: 20 | Kochia plant response rating [3]: 60 | Plant response rating, Foxtail, Giant [4]: 0 | Foxtail, Giant plant response rating [4]: 60 | Kochia plant response rating [5]: 40 | Plant response rating, Kochia [5]: 90 | Barnyardgrass plant response rating [6]: 50 | Plant response rating, Barnyardgrass [6]: 90 | Plant response rating, Corn [7]: 0 | Corn plant response rating [7]: 0 | Foxtail, Giant plant response rating [8]: 90 | Plant response rating, Foxtail, Giant [8]: 90 | Plant response rating, Ragweed [9]: 0 | Ragweed plant response rating [9]: 0 | Plant response rating, Pigweed [10]: 20 | Pigweed plant response rating [10]: 30 | Ragweed plant response rating [11]: 0 | Plant response rating, Ragweed [11]: 40 | Plant response rating, Ryegrass, Italian [12]: 40 | Ryegrass, Italian plant response rating [12]: 80 | Ryegrass, Italian plant response rating [13]: 70 | Plant response rating, Ryegrass, Italian [13]: 100 | Plant response rating, Blackgrass [14]: 0 | Blackgrass plant response rating [14]: 30 | Plant response rating, Barnyardgrass [15]: 20 | Barnyardgrass plant response rating [15]: 20 | Plant response rating, Wheat [16]: 40 | Wheat plant response rating [16]: 60
